Converted amounts (≈) assume the structure as drawn. The source made the active and inactive calls. The rule behind the calls is not given here.
Columns and labels:
[1] = Inhibition of Mycobacterium smegmatis thioredoxin 6xHis-tagged decaprenylphosphoryl-beta-D-ribose2'-epimerase 1 overexpressed in Escherichia coli rosetta cells using farnesyl-phosphoryl-beta-D-ribofuranose as substrate; set-up: species or system Mycolicibacterium smegmatis
[2] = Octanol-water partition coefficient, log D of the compound at pH 7.4 by shake flask method; assay type: physicochemical
[3] = system: Mycobacterium tuberculosis; assay type: functional, H37Rv ATCC 27294, THP-1
[4] = Intrinsic clearance in mouse liver microsomes; assay type: ADME; details: read-out: CLH
Phosphodiesterase 6 = assay: Inhibition of PDE6 (unknown origin); assay type: protein assay, Homo sapiens
Cytochrome P450 2C19 = Cytochrome P450 2C19 (Homo sapiens, UniProt P33261); assay: Inhibition of human CYP2C19; assay type: ADME
Chain of Cytochrome P450 2C19 (P33261 whole entry): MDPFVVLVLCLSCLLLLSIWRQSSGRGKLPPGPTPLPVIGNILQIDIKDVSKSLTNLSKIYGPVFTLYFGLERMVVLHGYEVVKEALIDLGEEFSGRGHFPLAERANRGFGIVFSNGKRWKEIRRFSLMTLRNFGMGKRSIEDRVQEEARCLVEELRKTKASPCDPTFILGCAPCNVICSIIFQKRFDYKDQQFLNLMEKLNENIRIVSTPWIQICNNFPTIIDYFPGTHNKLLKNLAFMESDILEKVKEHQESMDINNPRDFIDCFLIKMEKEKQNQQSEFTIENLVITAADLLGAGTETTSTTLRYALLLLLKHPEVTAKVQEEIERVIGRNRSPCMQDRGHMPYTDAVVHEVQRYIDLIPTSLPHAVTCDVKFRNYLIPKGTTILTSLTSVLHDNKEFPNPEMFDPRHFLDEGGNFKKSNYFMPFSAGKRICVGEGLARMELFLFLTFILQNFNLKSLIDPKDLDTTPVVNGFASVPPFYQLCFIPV

[5] = system: Mycobacterium tuberculosis; assay: microbe, parasite or virus in culture; details: H37Rv ATCC 27294, 120 h
Description: Antimicrobial activity against Mycobacterium tuberculosis H37Rv ATCC 27294 assessed as growth inhibition after 5 days by microdilution method

[6] = Permeability across basolateral to apical side in human Caco2 cells; assay type: ADME, cell-based; details: Caco-2, read-out: permeability
[7] = Clearance in po dosed rat; assay type: ADME, organism-based; details: in vivo
Cytochrome P450 2D6 = Cytochrome P450 2D6 (Homo sapiens, UniProt P10635); assay: Inhibition of human CYP2D6; assay type: ADME
Chain of Cytochrome P450 2D6 (P10635 whole entry): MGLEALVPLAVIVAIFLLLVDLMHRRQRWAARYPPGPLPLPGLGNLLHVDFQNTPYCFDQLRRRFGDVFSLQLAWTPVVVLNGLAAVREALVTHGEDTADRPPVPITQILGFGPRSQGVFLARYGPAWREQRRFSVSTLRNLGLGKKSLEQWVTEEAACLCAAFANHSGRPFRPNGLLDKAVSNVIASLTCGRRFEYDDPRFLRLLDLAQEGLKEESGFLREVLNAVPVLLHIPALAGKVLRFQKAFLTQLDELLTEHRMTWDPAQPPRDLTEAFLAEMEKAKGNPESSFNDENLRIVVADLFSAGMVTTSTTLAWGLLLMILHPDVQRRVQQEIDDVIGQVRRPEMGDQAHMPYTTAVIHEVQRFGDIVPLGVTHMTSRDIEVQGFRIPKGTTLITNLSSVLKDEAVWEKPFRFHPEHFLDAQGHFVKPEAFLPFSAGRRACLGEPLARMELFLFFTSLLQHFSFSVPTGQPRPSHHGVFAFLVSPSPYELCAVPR

Cytochrome P450 2C9 = Cytochrome P450 2C9 (Homo sapiens, UniProt P11712); assay: Inhibition of human CYP2C9; assay type: ADME
Chain of Cytochrome P450 2C9 (P11712 whole entry): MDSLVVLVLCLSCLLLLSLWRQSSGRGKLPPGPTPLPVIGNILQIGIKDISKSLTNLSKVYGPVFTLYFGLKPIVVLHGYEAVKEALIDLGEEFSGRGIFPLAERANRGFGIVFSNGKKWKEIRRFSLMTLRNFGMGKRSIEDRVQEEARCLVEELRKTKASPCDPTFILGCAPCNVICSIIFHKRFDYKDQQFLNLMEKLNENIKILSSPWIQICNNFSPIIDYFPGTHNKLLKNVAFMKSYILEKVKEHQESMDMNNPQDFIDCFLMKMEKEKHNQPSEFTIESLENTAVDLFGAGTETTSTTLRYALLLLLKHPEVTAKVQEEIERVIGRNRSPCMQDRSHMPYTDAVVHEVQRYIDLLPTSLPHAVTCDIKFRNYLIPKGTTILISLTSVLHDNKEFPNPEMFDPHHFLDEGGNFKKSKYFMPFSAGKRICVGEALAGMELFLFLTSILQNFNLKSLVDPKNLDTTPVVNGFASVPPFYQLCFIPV

[8] = Permeability across apical to basolateral side in human Caco2 cells; assay type: ADME, cell-based; details: Caco-2, read-out: permeability
Cytochrome P450 1A2 = molecular target: T1, Cytochrome P450 1A2 (Homo sapiens, UniProt P05177); assay: Inhibition of human CYP1A2; assay type: ADME
T1 sequence (P05177 whole entry): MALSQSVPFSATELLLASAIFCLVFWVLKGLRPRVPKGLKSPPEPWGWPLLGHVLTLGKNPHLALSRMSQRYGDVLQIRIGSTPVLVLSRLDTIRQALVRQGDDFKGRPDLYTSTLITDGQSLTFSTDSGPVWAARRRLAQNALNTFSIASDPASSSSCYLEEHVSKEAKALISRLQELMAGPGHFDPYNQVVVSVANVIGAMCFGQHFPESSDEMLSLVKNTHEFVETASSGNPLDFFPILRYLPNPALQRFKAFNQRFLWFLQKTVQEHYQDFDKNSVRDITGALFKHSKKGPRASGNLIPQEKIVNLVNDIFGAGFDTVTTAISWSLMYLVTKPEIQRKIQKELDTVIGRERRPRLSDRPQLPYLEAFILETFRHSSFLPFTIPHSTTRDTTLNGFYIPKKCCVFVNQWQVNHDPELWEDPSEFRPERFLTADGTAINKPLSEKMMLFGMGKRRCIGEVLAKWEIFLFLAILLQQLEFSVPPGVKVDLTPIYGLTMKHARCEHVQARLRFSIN

Cytochrome P450 3A4 = Cytochrome P450 3A4 (Homo sapiens, UniProt P08684); assay: Inhibition of human CYP3A4; assay type: ADME
Chain of Cytochrome P450 3A4 (P08684 whole entry): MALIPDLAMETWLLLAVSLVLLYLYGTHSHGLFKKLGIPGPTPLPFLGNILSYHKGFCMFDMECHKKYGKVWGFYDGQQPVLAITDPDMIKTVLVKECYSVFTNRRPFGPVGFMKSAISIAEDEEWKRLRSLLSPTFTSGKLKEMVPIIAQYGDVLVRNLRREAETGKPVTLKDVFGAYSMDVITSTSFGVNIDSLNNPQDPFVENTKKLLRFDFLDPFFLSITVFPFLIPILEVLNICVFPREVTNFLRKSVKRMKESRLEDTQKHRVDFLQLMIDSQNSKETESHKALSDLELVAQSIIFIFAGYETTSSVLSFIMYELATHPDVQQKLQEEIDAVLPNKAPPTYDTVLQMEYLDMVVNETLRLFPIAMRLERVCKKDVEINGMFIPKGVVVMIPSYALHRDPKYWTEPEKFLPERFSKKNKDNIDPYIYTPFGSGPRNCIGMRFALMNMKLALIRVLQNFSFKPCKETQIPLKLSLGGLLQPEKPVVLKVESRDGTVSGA

[9] = Oral bioavailability in rat; assay type: ADME, organism-based; details: in vivo
[10] = Aqueous solubility of the compound in phosphate buffer at pH 7.4 after 24 hrs by UV-MS analysis; assay type: physicochemical
[11] = Unbound fraction in human plasma; assay type: ADME, cell-free
[12] = system: Mycobacterium tuberculosis; assay type: functional, organism-based; set-up: dose 100 mg/kg; details: H37Rv ATCC 27294, Lung, 100 mg/kg
[13] = AUC in Mycobacterium tuberculosis H37Rv ATCC 27294 infected Wistar rat infection model at 100 mg/kg, po; assay type: ADME, organism-based; set-up: dose 100 mg/kg, route oral; details: Wistar, in vivo
[14] = molecular target: Voltage-gated inwardly rectifying potassium channel KCNH2 (Homo sapiens, UniProt Q12809)
Chain of Voltage-gated inwardly rectifying potassium channel KCNH2 (Q12809 whole entry): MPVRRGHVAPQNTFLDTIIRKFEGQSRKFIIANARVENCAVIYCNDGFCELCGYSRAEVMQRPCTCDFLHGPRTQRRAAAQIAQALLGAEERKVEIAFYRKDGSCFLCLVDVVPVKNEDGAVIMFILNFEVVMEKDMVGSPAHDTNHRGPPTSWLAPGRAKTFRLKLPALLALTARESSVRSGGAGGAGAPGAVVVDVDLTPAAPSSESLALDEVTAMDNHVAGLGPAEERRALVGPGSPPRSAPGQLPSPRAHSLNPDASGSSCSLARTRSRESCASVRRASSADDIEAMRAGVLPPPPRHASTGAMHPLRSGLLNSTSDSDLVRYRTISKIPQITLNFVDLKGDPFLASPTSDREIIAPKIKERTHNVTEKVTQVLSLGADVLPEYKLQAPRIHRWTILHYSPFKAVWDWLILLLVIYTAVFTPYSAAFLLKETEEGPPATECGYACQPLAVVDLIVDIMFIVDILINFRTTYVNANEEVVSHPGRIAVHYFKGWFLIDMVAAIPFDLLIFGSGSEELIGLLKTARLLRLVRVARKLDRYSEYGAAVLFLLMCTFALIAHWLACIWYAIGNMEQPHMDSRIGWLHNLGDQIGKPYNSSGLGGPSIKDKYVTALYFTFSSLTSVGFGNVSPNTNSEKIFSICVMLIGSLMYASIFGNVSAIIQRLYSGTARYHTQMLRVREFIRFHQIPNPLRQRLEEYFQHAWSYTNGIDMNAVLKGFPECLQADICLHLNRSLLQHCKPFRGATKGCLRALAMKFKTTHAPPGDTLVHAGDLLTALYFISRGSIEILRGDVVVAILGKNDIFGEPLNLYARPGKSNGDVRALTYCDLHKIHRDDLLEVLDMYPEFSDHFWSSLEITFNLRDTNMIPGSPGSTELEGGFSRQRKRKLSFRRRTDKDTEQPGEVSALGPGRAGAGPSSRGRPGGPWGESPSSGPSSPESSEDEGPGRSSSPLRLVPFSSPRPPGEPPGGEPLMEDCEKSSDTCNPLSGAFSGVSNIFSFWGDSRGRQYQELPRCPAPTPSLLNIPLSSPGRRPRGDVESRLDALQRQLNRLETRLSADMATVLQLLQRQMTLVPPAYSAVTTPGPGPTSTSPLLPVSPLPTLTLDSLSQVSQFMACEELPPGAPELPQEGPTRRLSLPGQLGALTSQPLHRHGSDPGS

Rattus norvegicus = assay: T>MIC in Wistar rat chronically infected with Mycobacterium tuberculosis H37Rv ATCC 27294 at 100 mg/kg, po
[15] = Half life in BALB/c mouse at 50 mg/kg, po administered as single dose; assay type: ADME, organism-based; set-up: dose 50 mg/kg, route oral; details: in vivo
[16] = Tmax in BALB/c mouse at 50 mg/kg, po administered as single dose; assay type: ADME, organism-based; set-up: dose 50 mg/kg, route oral; details: in vivo
[17] = AUC (infinity) in BALB/c mouse at 50 mg/kg, po administered as single dose; assay type: ADME, organism-based; set-up: dose 50 mg/kg, route oral, time infinity; details: plasma
[18] = Cmax in BALB/c mouse at 50 mg/kg, po administered as single dose; assay type: ADME, organism-based; set-up: dose 50 mg/kg, route oral; details: in vivo
[19] = Mycobacterium tuberculosis, H37Rv ATCC 27294, read-out: MIC

COc1ncnc(Cn2cc(C(=O)NCCF)c3ncc(Br)cc32)c1C
IC50 [1]: 22 nM | logD [2]: 2.4 | MIC [3, 19]: 1.56 µM (≈ 0.659 µg/mL)

COc1cnc2c(C(=O)NCC(F)F)cn(Cc3ncnc(OC(F)F)c3C)c2c1
IC50 [1]: 5 nM | logD [2]: 2.4 | MIC [3, 19]: < 0.39 µM

COc1cnc2c(C(=O)NCC(F)F)cn(Cc3ncnc(N(C)C)c3C)c2c1
IC50 [1]: 3 nM | microsomal CLint [4]: > 130 µL/min/mg | logD [2]: 2.5 | MIC [3, 19]: < 0.39 µM

COc1ncnc(Cn2cc(C(=O)NCCF)c3ncc(C4CC4)cc32)c1C
IC50 [1]: 13 nM | logD [2]: 3.1 | MIC [3, 19]: 3.12 µM (≈ 1.2 µg/mL)

Cc1cnc2c(C(=O)NCCO)cn(Cc3ncnc(OC(F)F)c3C)c2c1
IC50 (Phosphodiesterase 6): > 100000 nM | IC50 [1]: 21 nM | IC50 (Cytochrome P450 2C19): > 50000 nM | MIC [5]: 0.78 µM (≈ 0.305 µg/mL) | Papp B→A [6]: 23 ×10⁻⁶ cm/s | microsomal CLint [4]: 26 µL/min/mg | CL/F [7]: 48 mL/min/kg | IC50 (Cytochrome P450 2D6): > 50000 nM | logD [2]: 2 | IC50 (Cytochrome P450 2C9): > 50000 nM | Papp A→B [8]: 13 ×10⁻⁶ cm/s | MIC [3, 19]: < 0.39 µM | IC50 (Cytochrome P450 1A2): > 50000 nM | IC50 (Cytochrome P450 3A4): > 50000 nM | bioavailability [9]: 64% | solubility at 24 h [10]: 68 µM (≈ 26.6 µg/mL) | fraction unbound [11]: 0.3

COc1ncnc(Cn2cc(C(=O)NCCF)c3ncccc32)c1C
IC50 (Phosphodiesterase 6): 9000 nM | IC50 [1]: 10 nM | MIC [3]: 0.78 µM (≈ 0.268 µg/mL)

COc1cnc2c(C(=O)NCCF)cn(Cc3ncnc(OC)c3C)c2c1
IC50 [1]: 13 nM | microsomal CLint [4]: 129 µL/min/mg | logD [2]: 2.5 | MIC [3, 19]: < 0.39 µM

Cc1cnc2c(C(=O)NCC(F)F)cn(Cc3ncc(C)nc3C)c2c1
IC50 [1]: 15 nM | logD [2]: 2.4 | MIC [3, 19]: < 0.39 µM

COc1c(N2C[C@@H]3CCCN[C@@H]3C2)c(F)cc2c(=O)c(C(=O)O)cn(C3CC3)c12 [MOXIFLOXACIN]
MIC [5]: 0.125 µM (≈ 0.0502 µg/mL)

COc1cnc2c(C(=O)NCCO)cn(Cc3ncnc(OC(F)F)c3C)c2c1
IC50 [1]: 17 nM | MIC [3, 19]: 0.78 µM (≈ 0.318 µg/mL)

Cc1cnc2c(C(=O)NCCF)cn(Cc3ncc(C)nc3C)c2c1
IC50 [1]: 11 nM | microsomal CLint [4]: 22 µL/min/mg | logD [2]: 2.2 | MIC [3, 19]: < 0.39 µM

COc1ncnc(Cn2cc(C(=O)NCC(F)F)c3ncc(C)cc32)c1C
IC50 (Phosphodiesterase 6): > 10000 nM | IC50 [1]: < 5 nM | Activity [12]: Active | IC50 (Cytochrome P450 2C19): > 50000 nM | MIC [5]: < 0.39 µM | Papp B→A [6]: 9 ×10⁻⁶ cm/s | microsomal CLint [4]: 77 µL/min/mg | AUC [13]: 23 µM·h | IC50 [14]: > 33000 nM | IC50 (Cytochrome P450 2D6): > 50000 nM | logD [2]: 2.9 | IC50 (Cytochrome P450 2C9): > 50000 nM | T>MIC (Rattus norvegicus): 10 h | Papp A→B [8]: 24 ×10⁻⁶ cm/s | MIC [3, 19]: < 0.39 µM | IC50 (Cytochrome P450 1A2): > 50000 nM | IC50 (Cytochrome P450 3A4): > 50000 nM | solubility at 24 h [10]: 3 µM (≈ 1.13 µg/mL) | fraction unbound [11]: 0.05

COc1ncnc(Cn2cc(C(=O)NCCF)c3ncc(C(F)(F)F)cc32)c1C
IC50 [1]: 200 nM | MIC [3, 19]: > 200 µM

COc1ncnc(Cn2cc(C(=O)NCCO)c3ncc(C)cc32)c1C [TBA-7371]
IC50 [1]: 10 nM | IC50 (Cytochrome P450 2C19): > 50000 nM | half-life [15]: 42 min | Tmax [16]: 15 min | AUC(0-inf) [17]: 62 µM·h | CL/F [7]: 27 mL/min/kg | IC50 [14]: > 33000 nM | IC50 (Cytochrome P450 2D6): > 50000 nM | Cmax [18]: 73 µM | IC50 (Cytochrome P450 2C9): > 50000 nM | IC50 (Cytochrome P450 1A2): > 50000 nM | IC50 (Cytochrome P450 3A4): > 50000 nM | bioavailability [9]: 100%

COc1ncc(F)cc1Cn1cc(C(=O)NC[C@H](C)F)c2ncc(C)cc21
IC50 (Phosphodiesterase 6): > 100000 nM | IC50 [1]: 4 nM | MIC [3, 19]: < 0.39 µM

NNC(=O)c1ccncc1 [ISONIAZID]
MIC [5]: 0.312 µM (≈ 0.0428 µg/mL)

Reference: ChEMBL document CHEMBL3286390, “Lead optimization of 1,4-azaindoles as antimycobacterial agents” (J Med Chem, 2014)
